Assay results published in patent US20180344758A1, “Method of Treating Cancer with cGAMP or cGAsMP” (LIPOGEN LLC, priority 2014, published 2018).

What was measured:
[1] = system: IFN-β reporter; test: IFN-β reporter assay in THP1 blue cells; conditions: for inducing the expression of IFN-β reporter: THP1 blue cells, cyclic dinucleotides added to the culture media (FIG. 3A)
Description: (§1) To confirm that cGAMP can induce the expression of IFN-β, we stimulated human monocytes THP1 blue cells with cGAMP and other three cyclic dinucleotides added to the culture media.

[2] = system: neuronal cancer cell line SF539; test: MTT assay, SF539
Protocol: (§2) MTT solution: 5 mg/mL Thiazolyl Blue Tetrazolium Bromide (MTT) in PBS. The solution was filter sterilized after adding MTT and stored at −20° C.; MTT solvent: 4 mM HCl, 0.1% Nondet P-40 (NP40) in isopropanol. cGAMP or cGAsMP solutions: 10-30 mg/ml in PBS, filter sterilized using a 0.2 μm filter. • B. MTT Assay for Attaching Cancer Cell Lines SF539, U251, A498, and ACHN
On day one, one T-25 flask was trypsinized and 5 ml of complete media was added to the cells. The cells and media were centrifuged in a sterile 15 ml falcon tube at 300×g rcf in the swinging bucket rotor for 5 min. […] Cells were counted and recorded per ml. Cells were diluted (cv=cv) to 75,000 cells per ml with complete RPMI media. 100 μl of cells (7500 total cells) were added into each well of a 96 well plate and incubated overnight. 24 hours later, 100 μl of medium or cGAMP or cGAsMP solutions were added to each well. On the fifth day, 20 μl of 5 mg/ml MTT were added to each well. One set of wells with MTT but no cells served as a control. All steps were done aseptically. The wells were incubated for 3.5 hours at 37° C. in a CO2 incubator. Media was carefully removed, taking care not to disturb the cells. No PBS rinse was performed. 150 μl MTT solvent was added. The plate was covered with foil and cells agitated on orbital shaker for 15 min. The absorbance was measured at 590 nm using a plate reader. Each assay was repeated five times. • C.

[3] = system: IFN-β; test: IFN-β ELISA of THP1 culture supernatant; conditions: for IFN-β production: THP1 cells (FIGS. 13A-B); for IFN-β levels in the culture supernatant by ELISA, response: THP1 cells (FIG. 3B)
Description: as §1

[4] = system: leukemia cell line SR; test: MTT assay, SR; assay type: cell-based, human
[5] = system: MMTV-BALB-neuT mouse mammary tumors; test: MMTV-BALB-neuT spontaneous breast cancer model; conditions: 0.1 mg per mouse intra-tumor once a day for three days; day 4 post-treatment; p value of 0.0009 (FIG. 15D)
Protocol: Comparisons were made between vehicle (veh.) and cGAMP treatment. The tumor growth was monitored for 4 days and growth rate was examined using serial caliper measurements. The tumor volume was calculated using the equation (a×b^2)/2 where “a” and “b” are length and width of the tumor, respectively. At the completion of the experiments, tumors were excised and statistical significance of differences in tumor volume was analyzed.

[6] = system: CNS cancer cell line SF539; test: NCI60 antitumor screen, SF539; conditions: single dose of 10 μM
[7] = system: IFN-β; conditions: intravenous (i.v.) injection, 100 μg/mice, sera ELISA (FIG. 3C)
Description: FIG. 3C is an IFN-β ELISA of sera from mice injected with cGAMP.

[8] = system: leukemia cell line SR; test: NCI60 antitumor screen, SR; conditions: single dose of 10 μM
[9] = system: IFN-β in renal cancer cell line A498; test: IFN-β induction in A498; conditions: FIG. 7A
[10] = system: renal cancer cell line A498; test: MTT assay, A498; conditions: FIG. 6B
Protocol: as §2
On day one, one T-25 flask was trypsinized and 5 ml of complete media was added to the cells. The cells and media were centrifuged in a sterile 15 ml falcon tube at 300×g rcf in the swinging bucket rotor for 5 min. […] Cells were counted and recorded per ml. Cells were diluted (cv=cv) to 75,000 cells per ml with complete RPMI media. 100 μl of cells (7500 total cells) were added into each well of a 96 well plate and incubated overnight. 24 hours later, 100 μl of medium or cGAMP or cGAsMP solutions were added to each well. On the fifth day, 20 μl of 5 mg/ml MTT were added to each well. One set of wells with MTT but no cells served as a control. All steps were done aseptically. The wells were incubated for 3.5 hours at 37° C. in a CO2 incubator. Media was carefully removed, taking care not to disturb the cells. No PBS rinse was performed. 150 μl MTT solvent was added. The plate was covered with foil and cells agitated on orbital shaker for 15 min. The absorbance was measured at 590 nm using a plate reader. […]

[11] = system: NF-κB; test: NF-κB reporter assays
[12] = system: cytokines and chemokines; test: Multiplex cytokine assays in THP1 cells
[13] = system: IFN-β in CNS cancer cell line SF539; test: IFN-β induction in SF539; conditions: FIG. 7B
[14] = system: IFN-β in control cell lines; test: IFN-β induction in control cell lines; conditions: two control cell lines tested (FIG. 7)
[15] = system: leukemia cell line CCRF-CEM; test: MTT assay, CCRF-CEM; assay type: cell-based, human; conditions: control leukemia cell line (FIG. 8)
[16] = system: genome-wide gene expression; test: Microarray analysis of gene expression in THP1 cells; conditions: 20 μg/ml, 4 hours and 8 hours post treatment (FIG. 5)
[17] = system: renal cancer cell line A498; test: NCI60 antitumor screen, A498; conditions: single dose of 10 μM

SMILES: Nc1nc2c(ncn2C2OC3COP(=O)(O)OC4C(COP(O)(=S)OC2C3O)OC(n2cnc3c(N)ncnc32)C4O)c(=O)[nH]1 (stereo not shown) [cGAsMP, 2′5′-cGAsMP]
- potency in inducing IFN-β reporter gene expression, compared ([1]; THP1 cells, 0.2 to 25 μg/ml (FIG. 13B)): more potent than cGAMP
- antitumor activity, MTT ([2]; FIG. 14A): have antitumor activity
- impact on cell viability compared with cGAMP ([2]; FIG. 14A): generally a bigger impact on cell viability at lower concentrations
- IFN-β production [3]: can induce
- IFN-β levels relative to cGAMP ([3]; THP1 cells, 5 and 25 μg/ml, ELISA (FIG. 13A)): 5-10 times
- antitumor activity, MTT ([4]; FIG. 14B): have antitumor activity
- impact on cell viability compared with cGAMP ([4]; FIG. 14B): generally a bigger impact on cell viability at lower concentrations

SMILES: Nc1nc2c(ncn2[C@@H]2O[C@@H]3COP(=O)(O)O[C@H]4[C@@H](O)[C@H](n5cnc6c(N)ncnc65)O[C@@H]4COP(=O)(O)O[C@H]3[C@H]2O)c(=O)[nH]1 [3′,5′ cGAMP, reference compound]
- inducing the expression of IFN-β reporter [1]: lower activity
- IFN-β levels in the culture supernatant by ELISA, response [3]: much weaker

SMILES: Nc1nc2c(ncn2[C@@H]2O[C@@H]3COP(=O)(O)O[C@H]4[C@@H](O)[C@H](n5cnc6c(N)ncnc65)O[C@@H]4COP(=O)(O)O[C@@H]2[C@@H]3O)c(=O)[nH]1 [cGAMP, 2′,5′ cGAMP]
- tumor growth and tumor size [5]: effective for both reducing tumor growth and reducing tumor size
- inducing the expression of IFN-β reporter [1]: very potent
- growth inhibition [6]: effectively inhibited the growth
- induction of IFN-β in mice [7]: rapid responses
- growth inhibition [8]: effectively inhibited the growth
- induction of IFN-β [9]: induces IFN-β
- growth suppression, MTT [10]: suppresses the growth
- activation of NF-κB [11]: stimulate the activation of NF-κB
- expression of IL-1β ([12]; THP1 cell): does not up-regulate
- expression of IL-8, TNF-α, GROα, IP-10, MCP-1, MCP-2, and RANTES ([12]; THP1 cell (FIG. 4)): up-regulation
- growth suppression, MTT ([2]; FIG. 6A): suppresses the growth
- antitumor activity, MTT ([2]; FIG. 14A): have antitumor activity
- IFN-β levels in the culture supernatant by ELISA, response [3]: rapid responses
- IFN-β production [3]: can induce
- time at which induction of IFN-β peaked ([3]; THP1 cells, ELISA (FIG. 3B)): 8-10 hours post stimulation
- induction of IFN-β [13]: induces IFN-β
- induction of IFN-β [14]: quite low
- response of cell line to treatment, MTT [15]: did not respond
- response of cell line to treatment, MTT ([4]; FIG. 8A (cGAMP), FIG. 8B (IFN-β)): responds strongly
- antitumor activity, MTT ([4]; FIG. 14B): have antitumor activity
- number of genes up-regulated [16]: over 200 genes
- growth inhibition [17]: effectively inhibited the growth
